Data: the NIST ThermoML archive (doi:10.1016/j.fluid.2018.07.027)
Numbers after ± are expanded uncertainties.

Experiments:
[1] = 298.15 K, 101.33 kPa, Liquid; for speed of sound: Single path-length method; for mass density: Vibrating tube method
[2] = Boiling temperature at pressure P; details: 101.3 kPa; Liquid; Ebulliometric method (Recirculating still)
[3] = refractive index (Na D-line) (dimensionless); details: 298.15 K; 101.33 kPa; Liquid; Standard Abbe refractometry
[4] = xn = mol fraction of the nth substance listed; details: 298.15 K, 101.3 kPa, Liquid; for speed of sound: Frequency=3 MHz, Single path-length method; for mass density: Vibrating tube method
[5] = refractive index (Na D-line) (dimensionless); xn = mol fraction of the nth substance listed; details: 298.15 K, 101.3 kPa, Liquid, Standard Abbe refractometry

CC(C)CC(C)(C)C [2,2,4-trimethylpentane]
Details	Boiling temperature at pressure P [°C]	mass density [kg/m3]	refractive index	speed of sound [m/s]
[1]	–	687.824 ± 0.92	–	1082.8 ± 1.1
[2]	99.01 ± 0.05	–	–	–
[3]	–	–	1.38898 ± 0.00033	–

CC(C)CC(C)(C)C [2,2,4-trimethylpentane] + CCCCO
Details	mass density, [4] [kg/m3]	refractive index, [5]	speed of sound, [4] [m/s]
x1 = 0.0518	795.39 ± 0.93	1.39663 ± 0.00033	1223.4 ± 1.2
x1 = 0.1022	785.94 ± 0.93	1.39603 ± 0.00033	1208.3 ± 1.2
x1 = 0.1512	777.34 ± 0.93	1.39545 ± 0.00033	1194.3 ± 1.1
x1 = 0.2028	768.9 ± 0.92	1.39484 ± 0.00033	1181.5 ± 1.1
x1 = 0.2535	761.12 ± 0.92	1.39426 ± 0.00033	1169.4 ± 1.1
x1 = 0.3042	753.81 ± 0.92	1.39372 ± 0.00033	1157.9 ± 1.1
x1 = 0.3535	747.12 ± 0.92	1.39318 ± 0.00033	1148.6 ± 1.1
x1 = 0.4049	740.56 ± 0.92	1.39266 ± 0.00033	1139.1 ± 1.1
x1 = 0.4534	734.72 ± 0.92	1.39218 ± 0.00033	1130.8 ± 1.1
x1 = 0.5032	729.09 ± 0.92	1.39173 ± 0.00033	1123.4 ± 1.1
x1 = 0.5534	723.73 ± 0.92	1.39128 ± 0.00033	1116.6 ± 1.1
x1 = 0.6041	718.63 ± 0.92	1.39088 ± 0.00033	1110.3 ± 1.1
x1 = 0.6558	713.71 ± 0.92	1.3905 ± 0.00033	1104.5 ± 1.1
x1 = 0.7046	709.35 ± 0.92	1.39016 ± 0.00033	1099.6 ± 1.1
x1 = 0.7521	705.31 ± 0.92	1.38988 ± 0.00033	1095.4 ± 1.1
x1 = 0.8047	701.05 ± 0.92	1.38958 ± 0.00033	1091.1 ± 1.1
x1 = 0.8521	697.48 ± 0.92	1.38934 ± 0.00033	1087.9 ± 1.1
x1 = 0.9005	694.03 ± 0.92	1.38914 ± 0.00033	1085.1 ± 1.1
x1 = 0.9502	690.74 ± 0.92	1.38897 ± 0.00033	1082.8 ± 1.1
x1 = 1	687.79 ± 0.91	1.38898 ± 0.00033	1082.8 ± 1.1

CC(C)CC(C)(C)C [2,2,4-trimethylpentane] + CCCCOCCCC
x1 = 1
Details	mass density [kg/m3]	refractive index	speed of sound [m/s]
[4]	687.71 ± 0.91	–	1082.6 ± 1.1
[5]	–	1.38898 ± 0.00033	–

CCCCO [butan-1-ol]
Details	mass density [kg/m3]	refractive index	speed of sound [m/s]
[1]	805.769 ± 0.91	–	1240.1 ± 1.1
[3]	–	1.39725 ± 0.00033	–

CCCCO [butan-1-ol] + CC(C)CC(C)(C)C
x2 = 0
Details	mass density [kg/m3]	refractive index	speed of sound [m/s]
[4]	805.78 ± 0.91	–	1240.1 ± 1.1
[5]	–	1.39725 ± 0.00033	–
